Measurements as given in patent US7569550B2, “14 and 15 membered ring compounds” (Glaxo Group Limited, priority 2003, dated 2009).
Where a name gives a salt, the structure may show the parent alone.

Tests used:
Test in all cases: MIC, standard broth dilution method in microtitre
Assay type in all cases: cell-based
[1] = test system: erythromycin resistant strains of Streptococcus pneumoniae
Procedure: (§1) Using a standard broth dilution method in microtitre, compounds were tested for antibacterial activity. The compounds in the above examples gave minimum inhibitory concentrations (MICs) less than 1 microgram per millilitre against erythromycin-sensitive and erythromycin-resistant strains of Streptococcus pneumoniae and Streptococcus pyogenes.

[2] = test system: erythromycin resistant strains of Streptococcus pyogenes
Procedure: as §1

H. influenzae ATCC 49247 = conditions: Haemophilus influenzae, ATCC49247; H. influenzae ATCC 49247; read-out: MIC
Procedure: as §1
(§2) In addition, the MIC (μg/ml) of test compounds against various organisms was determined including:
(§3) S. aureus Smith ATCC 13709, S. pneumoniae SP030, S. pyogenes 3565, E. faecalis ATCC 29212, H. influenzae ATCC 49247, M. catarrhalis ATCC 23246.

[3] = test system: M. catarrhalis ATCC 23246; conditions: Moraxella catarrhalis, ATCC23246
Procedure: as §1, §2, §3

E. faecalis ATCC 29212 = conditions: Enterococcus faecalis, ATCC29212
Procedure: as §1, §2, §3

[4] = test system: S. aureus Smith ATCC 13709; conditions: Staphylococcus aureus, ATCC13709
Procedure: as §1, §2, §3

S. pneumoniae SP030 = conditions: Streptococcus pneumoniae
Procedure: as §1, §2, §3

S. pyogenes 3565 = conditions: Streptococcus pyogenes
Procedure: as §1, §2, §3

Compound | MIC [1] [µg/mL] | MIC [2] [µg/mL] | MIC (H. influenzae ATCC 49247) [µg/mL] | MIC [3] [µg/mL] | MIC (E. faecalis ATCC 29212) [µg/mL] | MIC [4] [µg/mL] | MIC (S. pneumoniae SP030) [µg/mL] | MIC (S. pyogenes 3565) [µg/mL]
CC[C@@H]1OC(=O)[C@H](C)[C@H](O[C@@H]2C[C@](C)(OC)[C@H](OCCCNCCSc3ccc4c(c3)c(=O)c(C(=O)O)cn4CC)[C@H](C)O2)[C@@H](C)[C@H](O[C@H]2O[C@@H](C)C[C@@H](N(C)C)[C@H]2O)[C@](C)(OC)C[C@H](C)C(=O)[C@H](C)[C@H]2OC(=O)O[C@@]12C [Example 4, 4″-O-{3-[2-(3-Carboxy-1-ethyl-4-oxo-1,4-dihydro-quinolin-6-ylsulfanyl)-ethylamino]-propyl}-6-O-methyl-erythromycin A 11,12-carbonate bisformate] | ≤ 1 | ≤ 1 | ≤ 4 | ≤ 4 |  |  |  | 
CC[C@@H]1OC(=O)[C@H](C)[C@H](O[C@@H]2C[C@](C)(OC)[C@H](OCCCNCCCc3ccc4c(c3)c(=O)c(C(=O)O)cn4CC)[C@H](C)O2)[C@@H](C)[C@H](O[C@H]2O[C@@H](C)C[C@@H](N(C)C)[C@H]2O)[C@](C)(OC)C[C@H](C)C(=O)[C@H](C)[C@H](O)[C@@]1(C)O [Example 5, 4″-O-{3-[3-(3-Carboxy-1-ethyl-4-oxo-1,4-dihydro-quinolin-6-yl)-propylamino]-propyl}-6-O-methyl-erythromycin A bisformate] |  |  |  |  | ≤ 1 | ≤ 1 | ≤ 1 | ≤ 1
CC[C@@H]1OC(=O)[C@H](C)[C@H](O[C@@H]2C[C@](C)(OC)[C@H](OCCCNCCCc3ccc4c(c3)c(=O)c(C(=O)O)cn4CC)[C@H](C)O2)[C@@H](C)[C@H](O[C@H]2O[C@@H](C)C[C@@H](N(C)C)[C@H]2O)[C@](C)(OC)C[C@H](C)C(=O)[C@H](C)[C@H]2N(C)C(=O)O[C@@]12C [Example 7, 4″-O-{3-[2-(3-Carboxy-1-ethyl-4-oxo-1,4-dihydro-quinolin-6-yl)-propylamino]-propyl}-6-O-methyl-11-desoxy-11-(R)-methylamino-erythromycin A 11,12-carbamate formate] | ≤ 1 | ≤ 1 |  |  | ≤ 1 | ≤ 1 | ≤ 1 | ≤ 1
CC[C@@H]1OC(=O)[C@H](C)[C@H](O[C@@H]2C[C@](C)(OC)[C@H](OCCCNCCCc3ccc4c(c3)c(=O)c(C(=O)O)cn4CC)[C@H](C)O2)[C@@H](C)[C@H](O[C@H]2O[C@@H](C)C[C@@H](N(C)C)[C@H]2O)[C@](C)(OC)C[C@H](C)C(=O)[C@H](C)[C@H]2OC(=O)O[C@@]12C [Example 9, 4″-O-{3-[3-(3-Carboxy-1-ethyl-4-oxo-1,4-dihydro-quinolin-6-yl)propylamino]-propyl}-6-O-methyl-erythromycin A 11,12-carbonate formate] | ≤ 1 | ≤ 1 |  |  |  |  |  | 
CC[C@@H]1OC(=O)[C@H](C)[C@H](O[C@@H]2C[C@](C)(OC)[C@H](OCCCNCCNc3cc4c(=O)c(C(=O)O)cn(C5CC5)c4cc3Cl)[C@H](C)O2)[C@@H](C)[C@H](O[C@H]2O[C@@H](C)C[C@@H](N(C)C)[C@H]2O)[C@](C)(OC)C[C@H](C)C(=O)[C@H](C)[C@H]2OC(=O)O[C@@]12C [Example 10, 4″-O-{3-[2-(3-Carboxy-7-chloro-1-cyclopropyl-4-oxo-1,4-dihydro-quinolin-6-ylamino)ethylamino]-propyl}-6-O-methyl-erythromycin A 11,12-carbonate formate] | ≤ 1 | ≤ 1 |  |  |  |  |  | 
CC[C@@H]1OC(=O)[C@H](C)[C@H](O[C@@H]2C[C@](C)(OC)[C@H](OCCCN(C)CCNc3cc4c(=O)c(C(=O)O)cn(C5CC5)c4cc3Cl)[C@H](C)O2)[C@@H](C)[C@H](O[C@H]2O[C@@H](C)C[C@@H](N(C)C)[C@H]2O)[C@](C)(OC)C[C@H](C)C(=O)[C@H](C)[C@H]2OC(=O)O[C@@]12C [Example 14, 4″-O-(3-{[2-(3-Carboxy-7-chloro-1-cyclopropyl-4-oxo-1,4-dihydro-quinolin-6-ylamino)ethyl]-methylamino}-propyl)-6-O-methyl-erythromycin A 11,12-carbonate] | ≤ 1 | ≤ 1 | ≤ 4 | ≤ 4 |  |  |  | 
CC[C@@H]1OC(=O)[C@H](C)[C@H](O[C@@H]2C[C@](C)(OC)[C@H](OCCNCCCc3ccc4c(c3)c(=O)c(C(=O)O)cn4CC)[C@H](C)O2)[C@@H](C)[C@H](O[C@H]2O[C@@H](C)C[C@@H](N(C)C)[C@H]2O)[C@](C)(O)C[C@H](C)CN(C)[C@@H](C)[C@H]2OC(=O)O[C@@]12C [Example 16, 4″-O-{2-[3-(3-Carboxy-1-ethyl-4-oxo-1,4-dihydro-quinolin-6-yl)propylamino]ethyl}azithromycin 11,12-carbonate] |  |  | ≤ 4 | ≤ 4 |  |  |  | 
CC[C@H]1OC(=O)[C@H](C)[C@@H](O[C@H]2C[C@@](C)(OC)[C@@H](OCCCNCCCc3cnc4c(c3)c(=O)c(C(=O)O)cn4CC)[C@H](C)O2)[C@H](C)[C@@H](O[C@@H]2O[C@H](C)C[C@H](N(C)C)[C@H]2O)[C@](C)(OC)C[C@@H](C)C(=O)[C@@H](C)[C@H]2NC(=O)O[C@@]21C [Example 24, 4″-O-{3-[3-(3-Carboxy-1-ethyl-4-oxo-1,4-dihydro-6-[1,8]naphthryidinyl)-propylamino]-propyl}-6-O-methyl-11-desoxy-11-(R)-amino-erythromycin A 11,12-carbamate formate] | ≤ 1 | ≤ 1 |  |  |  |  |  | 
CC[C@H]1OC(=O)[C@H](C)[C@@H](O[C@H]2C[C@@](C)(OC)[C@@H](OCCCNCCCc3cc4c5c(c3)c(=O)c(C(=O)O)cn5CCC4)[C@H](C)O2)[C@H](C)[C@@H](O[C@@H]2O[C@H](C)C[C@H](N(C)C)[C@H]2O)[C@](C)(OC)C[C@@H](C)C(=O)[C@@H](C)[C@H]2NC(=O)O[C@@]21C [Example 25, 4″-O-{3-[3-(2-Carboxy-1-oxo-6,7-dihydro-1H,5H-pyrido[3,2,1-ij]quinolin-9-yl)-propylamino]-propyl}-6-O-methyl-11-desoxy-11-(R)-amino-erythromycin A 11,12-carbamate formate] | ≤ 1 | ≤ 1 |  |  | ≤ 1 | ≤ 1 | ≤ 1 | ≤ 1

Next, values leading:

MIC [1] [µg/mL] | MIC [2] [µg/mL] | MIC (H. influenzae ATCC 49247) [µg/mL] | MIC [3] [µg/mL] | MIC (E. faecalis ATCC 29212) [µg/mL] | MIC [4] [µg/mL] | MIC (S. pneumoniae SP030) [µg/mL] | MIC (S. pyogenes 3565) [µg/mL] | Compound
≤ 1 | ≤ 1 |  |  |  |  |  |  | CC[C@@H]1OC(=O)[C@H](C)[C@H](O[C@@H]2C[C@](C)(OC)[C@H](OCCCNCCOc3ccc4c(c3)c(=O)c(C(=O)O)cn4CC)[C@H](C)O2)[C@@H](C)[C@H](O[C@H]2O[C@@H](C)C[C@@H](N(C)C)[C@H]2O)[C@](C)(OC)C[C@H](C)C(=O)[C@H](C)[C@H]2OC(=O)O[C@@]12C [Example 3, 4″-O-{3-[2-(3-Carboxy-1-ethyl-4-oxo-1,4-dihydro-quinolin-6-yloxy)-ethylamino]-propyl}-6-O-methyl-erythromycin A 11,12-carbonate bis trifluoroacetate]
≤ 1 | ≤ 1 |  |  |  |  |  |  | CC[C@@H]1OC(=O)[C@H](C)[C@H](O[C@@H]2C[C@](C)(OC)[C@H](OCCCNCCNc3cc4c(cc3F)c(=O)c(C(=O)O)cn4C3CC3)[C@H](C)O2)[C@@H](C)[C@H](O[C@H]2O[C@@H](C)C[C@@H](N(C)C)[C@H]2O)[C@](C)(OC)C[C@H](C)C(=O)[C@H](C)[C@H]2OC(=O)O[C@@]12C [Example 11, 4″-O-{3-[2-(3-Carboxy-1-cyclopropyl-6-fluoro-4-oxo-1,4-dihydro-quinolin-7-ylamino)ethylamino]-propyl}-6-O-methyl-erythromycin A 11,12-carbonate formate]
≤ 1 | ≤ 1 |  |  |  |  |  |  | CC[C@@H]1OC(=O)[C@H](C)[C@H](O[C@@H]2C[C@](C)(OC)[C@H](OCCCNCCNc3nc4c(cc3F)c(=O)c(C(=O)O)cn4CC)[C@H](C)O2)[C@@H](C)[C@H](O[C@H]2O[C@@H](C)C[C@@H](N(C)C)[C@H]2O)[C@](C)(OC)C[C@H](C)C(=O)[C@H](C)[C@H]2OC(=O)O[C@@]12C [Example 12, 4″-O-{3-[2-(3-Carboxy-1-ethyl-6-fluoro-4-oxo-1,4-dihydro-[1,8]naphthyridin-7-ylamino)ethylamino]-propyl}-6-O-methyl-erythromycin A 11,12-carbonate formate]
≤ 1 | ≤ 1 |  |  | ≤ 1 | ≤ 1 | ≤ 1 | ≤ 1 | CC[C@H]1OC(=O)[C@H](C)[C@@H](O[C@H]2C[C@@](C)(OC)[C@@H](OCCCNCCOc3cc4c5c(c3)c(=O)c(C(=O)O)cn5CCC4)[C@H](C)O2)[C@H](C)[C@@H](O[C@@H]2O[C@H](C)CC(N(C)C)[C@H]2O)[C@](C)(OC)C[C@@H](C)C(=O)[C@@H](C)[C@H]2NC(=O)O[C@@]21C (stereo partly drawn) [Example 22, 4″-O-{3-[2-(2-Carboxy-1-oxo-6,7-dihydro-1H,5H-pyrido[3,2,1-ij]quinolin-9-yloxy)-ethylamino]-propyl}-6-O-methyl-11-desoxy-11-(R)-amino-erythromycin A 11,12-carbamate formate]
≤ 1 | ≤ 1 |  |  |  |  |  |  | CCc1cc(C(=O)O)c(=O)n2ccc(NCCNCCCO[C@H]3[C@H](C)O[C@@H](O[C@H]4[C@H](C)[C@@H](O[C@@H]5O[C@H](C)C[C@H](N(C)C)[C@H]5O)[C@](C)(OC)C[C@@H](C)C(=O)[C@@H](C)[C@H]5NC(=O)O[C@]5(C)[C@@H](CC)OC(=O)[C@@H]4C)C[C@@]3(C)OC)cc12 [Example 26, 4″-O-{3-[2-(3-Carboxy-1-ethyl-4-oxo-4-H-quinolizin-7-ylamino)-ethylamino]-propyl}-6-O-methyl-11-desoxy-11-(R)-amino-erythromycin A 11,12-carbamate formate]
